In patent US20240150340A1, “CDK Inhibitors And Their Use As Pharmaceuticals” (Prelude Therapeutics Incorporated, priority 2022, published 2024):

Legend:
[1] = target: T1, CDK2/Cyclin E2 (Homo sapiens, UniProt P24941); experiment: CDK2/CyclinE2 Enzymatic Activity Assay (TR-FRET); format: biochemical; settings: ATP 1 mM final, read-out: CDK2_E1 IC50
T1 construct: Recombinant protein complex CDK2/Cyclin E2, expressed from insect cell, was purchased from ProQinase
Method in brief: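 Recombinant insect-cell CDK2/Cyclin E2 (1 nM) phosphorylated ULight-4E-BP1 (50 nM) with 1 mM ATP in HEPES pH 7.4 buffer, after 20 min compound preincubation; MgCl2 (10 mM) started the 45 min reaction at 37° C. Europium anti-phospho-4E-BP1 TR-FRET read; 9-dose IC50 by 4-parameter fit.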

[2] = tested on: OVCAR3 p-RB; experiment: pRB ICW Assay in OVCAR3 Cells; format: cell-based; settings: Homo sapiens, OVCAR-3, incubated with compound for 2 hours
Method in brief: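 In-Cell Western on OVCAR3: phospho-RB antibody signal with DRAQ5 counterstain read at 700 and 800 nm after fixation. Compounds were applied for 2 h at 37° C. as 9-point ½-log dilutions in duplicate; 10 μM reference compound defined full inhibition.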

[3] = target: T2, CDK4/Cyclin D1 (Homo sapiens, UniProt P11802); experiment: CDK4/CyclinD1 Enzymatic Activity Assay (TR-FRET); format: biochemical; settings: ATP 2 mM final, read-out: CDK4_D1 IC50
T2 construct: purchased ProQinase; host or cells: insect cell
T2 sequence (P11802 whole entry): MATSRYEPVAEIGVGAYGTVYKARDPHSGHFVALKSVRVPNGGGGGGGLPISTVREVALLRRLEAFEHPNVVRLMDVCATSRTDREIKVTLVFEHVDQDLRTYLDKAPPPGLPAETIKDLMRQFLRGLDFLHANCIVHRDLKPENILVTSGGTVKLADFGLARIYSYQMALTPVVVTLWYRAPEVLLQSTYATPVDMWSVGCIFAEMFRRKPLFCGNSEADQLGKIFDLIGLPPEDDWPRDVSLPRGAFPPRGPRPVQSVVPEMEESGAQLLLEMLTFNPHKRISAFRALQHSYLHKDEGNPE
T2 sequence (P24385 whole entry partner): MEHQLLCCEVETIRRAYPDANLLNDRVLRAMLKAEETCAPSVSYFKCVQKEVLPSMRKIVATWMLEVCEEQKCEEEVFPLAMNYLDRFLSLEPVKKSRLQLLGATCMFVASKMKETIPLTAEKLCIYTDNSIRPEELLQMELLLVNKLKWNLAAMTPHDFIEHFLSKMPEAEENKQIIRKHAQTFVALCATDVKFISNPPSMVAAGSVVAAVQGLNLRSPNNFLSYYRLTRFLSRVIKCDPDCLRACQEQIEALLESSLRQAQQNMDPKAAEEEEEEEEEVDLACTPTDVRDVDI
Method in brief: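 Insect-cell-expressed CDK4/Cyclin D1 (1 nM) with ULight-4E-BP1 (100 nM) and 2 mM ATP in HEPES pH 7.4; 9-dose 3-fold compound series preincubated 20 min, reaction started with 10 mM MgCl2, 45 min at 37° C. Europium anti-P-4E-BP1 TR-FRET read; IC50 from 4-parameter Hill fit.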

SMILES | IC50 [1] | IC50 [2] | IC50 [3]
Cc1sc(-c2nc(N[C@H]3CCN(S(C)(=O)=O)C[C@H]3C)ncc2C(F)(F)F)cc1C(N)=O [Example 52, 2-methyl-5-(2-(((3R,4S)-3-methyl-1-(methylsulfonyl)piperidin-4-yl)amino)-5-(trifluoromethyl)pyrimidin-4-yl)thiophene-3-carboxamide] | ≤ 100 nM | 100 to 500 nM | 100 to 500 nM
Cc1sc(-c2nc(N[C@H]3CCN(S(C)(=O)=O)C[C@H]3C)ncc2C(F)(F)F)cc1C#N [Example 54, 2-methyl-5-(2-(((3R,4S)-3-methyl-1-(methylsulfonyl)piperidin-4-yl)amino)-5-(trifluoromethyl)pyrimidin-4-yl)thiophene-3-carbonitrile] | ≤ 100 nM | > 500 nM | > 500 nM
Cc1sc(-c2nc(NC3CCN(S(=O)(=O)c4c[nH]cn4)CC3)ncc2C(F)(F)F)cc1C#N [Example 55, 5-(2-((1-((1H-imidazol-4-yl)sulfonyl)piperidin-4-yl)amino)-5-(trifluoromethyl)pyrimidin-4-yl)-2-methylthiophene-3-carbonitrile] | ≤ 100 nM | 100 to 500 nM | ≤ 100 nM
CC(O)c1cnc(-c2nc(NC3CCN(S(=O)(=O)c4cn[nH]c4)CC3)ncc2C(F)(F)F)s1 (stereo not drawn) [Example 56, 1-(2-(2-((1-((1H-pyrazol-4-yl)sulfonyl)piperidin-4-yl)amino)-5-(trifluoromethyl)pyrimidin-4-yl)thiazol-5-yl)ethan-1-ol] | ≤ 100 nM | ≤ 100 nM | ≤ 100 nM
Cn1cc(S(=O)(=O)N2CCC(Nc3ncc(C(F)(F)F)c(-c4nccs4)n3)CC2)cn1 [Example 58, N-(1-((1-methyl-1H-pyrazol-4-yl)sulfonyl)piperidin-4-yl)-4-(thiazol-2-yl)-5-(trifluoromethyl)pyrimidin-2-amine] | ≤ 100 nM | 100 to 500 nM | ≤ 100 nM
Cn1cnc(S(=O)(=O)N2CCC(Nc3ncc(C(F)(F)F)c(-c4nccs4)n3)CC2)c1 [Example 59, N-(1-((1-methyl-1H-imidazol-4-yl)sulfonyl)piperidin-4-yl)-4-(thiazol-2-yl)-5-(trifluoromethyl)pyrimidin-2-amine] | ≤ 100 nM | ≤ 100 nM | ≤ 100 nM
Cn1cc(S(=O)(=O)N2CCC(Nc3ncc(C(F)(F)F)c(-c4ncc(C(O)C(F)(F)F)s4)n3)CC2)cn1 (stereo not drawn) [Example 61, 2,2,2-trifluoro-1-(2-(2-((1-((1-methyl-1H-pyrazol-4-yl)sulfonyl)piperidin-4-yl)amino)-5-(trifluoromethyl)pyrimidin-4-yl)thiazol-5-yl)ethan-1-ol] | ≤ 100 nM | ≤ 100 nM | ≤ 100 nM
Cc1cnc(-c2nc(NC3CCN(S(C)(=O)=O)CC3)ncc2C(F)(F)F)s1 [Example 65, N-(1-(methylsulfonyl)piperidin-4-yl)-4-(5-methylthiazol-2-yl)-5-(trifluoromethyl)pyrimidin-2-amine] | ≤ 100 nM | 100 to 500 nM | ≤ 100 nM
Cn1cnc(S(=O)(=O)N2CC[C@@H](Nc3ncc(C(F)(F)F)c(-c4cc(C(N)=O)ns4)n3)[C@H](F)C2)c1 [Example 66, 5-(2-(((3R,4R)-3-fluoro-1-((1-methyl-1H-imidazol-4-yl)sulfonyl)piperidin-4-yl)amino)-5-(trifluoromethyl)pyrimidin-4-yl)isothiazole-3-carboxamide] | ≤ 100 nM | ≤ 100 nM | ≤ 100 nM
CC(O)c1sc(-c2nc(N[C@H]3CCN(S(=O)(=O)c4c[nH]cn4)C[C@H]3C)ncc2C(F)(F)F)cc1C#N (stereo partly drawn) [Example 68, 5-(2-(((3R,4S)-1-((1H-imidazol-4-yl)sulfonyl)-3-methylpiperidin-4-yl)amino)-5-(trifluoromethyl)pyrimidin-4-yl)-2-(1-hydroxyethyl)thiophene-3-carbonitrile] | ≤ 100 nM | 100 to 500 nM | 100 to 500 nM

The remaining lines, values ahead:

IC50 [1] | IC50 [2] | IC50 [3] | SMILES
≤ 100 nM | > 500 nM | 100 to 500 nM | Cc1sc(-c2nc(N[C@H]3CCN(S(=O)(=O)c4cn(C)cn4)C[C@H]3C)ncc2C(F)(F)F)cc1C#N [Example 53, 2-methyl-5-(2-(((3R,4S)-3-methyl-1-((1-methyl-1H-imidazol-4-yl)sulfonyl)piperidin-4-yl)amino)-5-(trifluoromethyl)pyrimidin-4-yl)thiophene-3-carbonitrile]
≤ 100 nM | ≤ 100 nM | ≤ 100 nM | CC(O)c1cnc(-c2nc(NC3CCN(S(=O)(=O)c4c[nH]cn4)CC3)ncc2C(F)(F)F)s1 (stereo not drawn) [Example 57, 1-(2-(2-((1-((1H-imidazol-4-yl)sulfonyl)piperidin-4-yl)amino)-5-(trifluoromethyl)pyrimidin-4-yl)thiazol-5-yl)ethan-1-ol]
≤ 100 nM | ≤ 100 nM | ≤ 100 nM | Cn1cnc(S(=O)(=O)N2CCC(Nc3ncc(C(F)(F)F)c(-c4ncc(C(O)C(F)(F)F)s4)n3)CC2)c1 (stereo not drawn) [Example 60, 2,2,2-trifluoro-1-(2-(2-((1-((1-methyl-1H-imidazol-4-yl)sulfonyl)piperidin-4-yl)amino)-5-(trifluoromethyl)pyrimidin-4-yl)thiazol-5-yl)ethan-1-ol]
≤ 100 nM | ≤ 100 nM | ≤ 100 nM | Cn1cc(S(=O)(=O)N2CCC(Nc3ncc(C(F)(F)F)c(-c4ncc(CC(C)(C)O)s4)n3)CC2)cn1 [Example 62, 2-methyl-1-(2-(2-((1-((1-methyl-1H-pyrazol-4-yl)sulfonyl)piperidin-4-yl)amino)-5-(trifluoromethyl)pyrimidin-4-yl)thiazol-5-yl)propan-2-ol]
≤ 100 nM | ≤ 100 nM | ≤ 100 nM | CC(O)c1cnc(-c2nc(NC3CCN(S(=O)(=O)c4cn(C)cn4)CC3)ncc2C(F)(F)F)s1 (stereo not drawn) [Example 63, 1-(2-(2-((1-((1-methyl-1H-imidazol-4-yl)sulfonyl)piperidin-4-yl)amino)-5-(trifluoromethyl)pyrimidin-4-yl)thiazol-5-yl)ethan-1-ol]
≤ 100 nM | > 500 nM | 100 to 500 nM | Cc1cnc(-c2nc(N[C@H]3CCN(S(=O)(=O)c4cn(C)cn4)C[C@H]3C)ncc2C(F)(F)F)s1 [Example 64, N-((3R,4S)-3-methyl-1-((1-methyl-1H-imidazol-4-yl)sulfonyl)piperidin-4-yl)-4-(5-methylthiazol-2-yl)-5-(trifluoromethyl)pyrimidin-2-amine]
≤ 100 nM | ≤ 100 nM | ≤ 100 nM | Cn1cnc(S(=O)(=O)N2CC[C@H](Nc3ncc(C(F)(F)F)c(-c4cc(C(N)=O)ns4)n3)[C@H](F)C2)c1 [Example 67, 5-(2-(((3R,4S)-3-fluoro-1-((1-methyl-1H-imidazol-4-yl)sulfonyl)piperidin-4-yl)amino)-5-(trifluoromethyl)pyrimidin-4-yl)isothiazole-3-carboxamide]
≤ 100 nM | ≤ 100 nM | 100 to 500 nM | Cn1cc(S(=O)(=O)N2CCC(Nc3ncc(C(F)(F)F)c(-c4cc(C#N)cs4)n3)CC2)cn1 [Example 69, 5-(2-((1-((1-Methyl-1H-pyrazol-4-yl)sulfonyl)piperidin-4-yl)amino)-5-(trifluoromethyl)pyrimidin-4-yl)thiophene-3-carbonitrile]
≤ 100 nM | ≤ 100 nM | ≤ 100 nM | Cc1sc(-c2nc(NC3CCN(S(C)(=O)=O)CC3)ncc2C(F)(F)F)cc1C(N)=O [Example 70, 2-methyl-5-(2-((1-(methylsulfonyl)piperidin-4-yl)amino)-5-(trifluoromethyl)pyrimidin-4-yl)thiophene-3-carboxamide]
≤ 100 nM | ≤ 100 nM | ≤ 100 nM | Cc1sc(-c2nc(NC3CCN(S(=O)(=O)c4cnn(C)c4)CC3)ncc2C(F)(F)F)cc1C(N)=O [Example 71, 2-methyl-5-(2-((1-((1-methyl-1H-pyrazol-4-yl)sulfonyl)piperidin-4-yl)amino)-5-(trifluoromethyl)pyrimidin-4-yl)thiophene-3-carboxamide]
≤ 100 nM | ≤ 100 nM | ≤ 100 nM | Cc1sc(-c2nc(NC3CCN(S(=O)(=O)c4cnn(C)c4)CC3)ncc2C(F)(F)F)cc1C#N [Example 72, 2-methyl-5-(2-((1-((1-methyl-1H-pyrazol-4-yl)sulfonyl)piperidin-4-yl)amino)-5-(trifluoromethyl)pyrimidin-4-yl)thiophene-3-carbonitrile]
≤ 100 nM | ≤ 100 nM | ≤ 100 nM | CS(=O)(=O)N1CCC(Nc2ncc(C(F)(F)F)c(-c3cc(C(N)=O)cs3)n2)CC1 [Example 73, 5-(2-((1-(methylsulfonyl)piperidin-4-yl)amino)-5-(trifluoromethyl)pyrimidin-4-yl)thiophene-3-carboxamide]
≤ 100 nM | ≤ 100 nM | ≤ 100 nM | Cn1cc(S(=O)(=O)N2CCC(Nc3ncc(C(F)(F)F)c(-c4cc(C(N)=O)cs4)n3)CC2)cn1 [Example 74, 5-(2-((1-((1-methyl-1H-pyrazol-4-yl)sulfonyl)piperidin-4-yl)amino)-5-(trifluoromethyl)pyrimidin-4-yl)thiophene-3-carboxamide]
